# How the values were obtained:
# Assay type in all cases: in vivo
# [1] = system: barnyardgrass (Echinochloa crus-galli); test: Test A preemergence soil spray, visual injury rating 0-100; conditions: 10 days, 0 = no effect, 100 = complete control
# Outline: (§1)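 Grow plants in loam soil blended with sand. Apply formulated compound (non-phytotoxic solvent, surfactant) as a directed soil spray before emergence, or to plants at the one- to two-leaf stage after emergence. Hold in greenhouse 10 days, then rate injury visually versus untreated controls on a 0-100 scale.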
# [2] = system: blackgrass (Alopecurus myosuroides); test: as above; conditions: 10 days, 0 = no effect, 100 = complete control
# Outline: as §1
# corn (Zea mays) [3] = test: as above; conditions: 10 days, 0 = no effect, 100 = complete control
# Outline: as §1
# [4] = system: green foxtail (Setaria viridis); test: as above; conditions: 10 days, 0 = no effect, 100 = complete control
# Outline: as §1
# kochia (Bassia scoparia) [5] = test: as above; conditions: 10 days, 0 = no effect, 100 = complete control
# Outline: as §1
# [6] = system: oat, wild (wild oat, Avena fatua); test: as above; conditions: 10 days, 0 = no effect, 100 = complete control
# Outline: as §1
# [7] = system: palmer (palmer amaranth, palmer pigweed, Amaranthus palmeri); test: as above; conditions: 10 days, 0 = no effect, 100 = complete control
# Outline: as §1
# [8] = system: ragweed (common ragweed, Ambrosia artemisiifolia); test: as above; conditions: 10 days, 0 = no effect, 100 = complete control
# Outline: as §1
# [9] = system: ryegrass, Italian (italian ryegrass, Lolium multiflorum); test: as above; conditions: 10 days, 0 = no effect, 100 = complete control
# Outline: as §1
# soybean (Glycine max) [10] = test: as above; conditions: 10 days, 0 = no effect, 100 = complete control
# Outline: as §1
# [11] = system: wheat (Triticum aestivum); test: as above; conditions: 10 days, 0 = no effect, 100 = complete control
# Outline: as §1
# [12] = system: barnyardgrass (Echinochloa crus-galli); test: Test A postemergence application, visual injury rating 0-100; conditions: 10 days
# Outline: as §1
# [13] = system: blackgrass (Alopecurus myosuroides); test: as above; conditions: 10 days
# Outline: as §1
# corn (Zea mays) [14] = test: as above; conditions: 10 days
# Outline: as §1
# [15] = system: galium (catchweed bedstraw, Galium aparine); test: as above; conditions: 10 days
# Outline: as §1
# [16] = system: green foxtail (Setaria viridis); test: as above; conditions: 10 days
# Outline: as §1
# [17] = system: horseweed (Erigeron canadensis); test: as above; conditions: 10 days
# Outline: as §1
# kochia (Bassia scoparia) [18] = test: as above; conditions: 10 days
# Outline: as §1
# [19] = system: oat, wild (wild oat, Avena fatua); test: as above; conditions: 10 days
# Outline: as §1
# [20] = system: palmer (palmer amaranth, palmer pigweed, Amaranthus palmeri); test: as above; conditions: 10 days
# Outline: as §1
# [21] = system: ragweed (common ragweed, Ambrosia artemisiifolia); test: as above; conditions: 10 days
# Outline: as §1
# [22] = system: ryegrass, Italian (italian ryegrass, Lolium multiflorum); test: as above; conditions: 10 days
# Outline: as §1
# soybean (Glycine max) [23] = test: as above; conditions: 10 days
# Outline: as §1
# [24] = system: wheat (Triticum aestivum); test: as above; conditions: 10 days
# Outline: as §1
# [25] = system: barnyardgrass (Echinochloa crusgalli); test: Test B flooded paddy test, visual plant response rating 0-100; conditions: 250 g ai/ha, Flood, applied to paddy water, evaluated after 13 days
# Outline: (§2)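 Paddy-water application: test compounds went directly into water flooded 3 cm above the soil surface, with plants at 2 leaves. After a 13-day greenhouse period, responses were judged by eye relative to controls; a dash marks an untested entry.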
# [26] = system: ducksalad (Heteranthera limosa); test: as above; conditions: 250 g ai/ha, Flood, applied to paddy water, evaluated after 13 days
# Outline: as §2
# rice (Oryza sativa) = test: as above; conditions: 250 g ai/ha, Flood, applied to paddy water, evaluated after 13 days
# Outline: as §2
# [27] = system: sedge, umbrella (small-flower umbrella sedge, Cyperus difformis); test: as above; conditions: 250 g ai/ha, Flood, applied to paddy water, evaluated after 13 days
# Outline: as §2
# [28] = 31 g ai/ha, postemergence, 0 = no effect, 100 = complete control
# [29] = Postemergence, 125 g ai/ha, 0 is no effect, 100 is complete control
compound,measurement,setting,value
CC1(C(=O)NC2C=CC(C(=O)OCc3ccc(F)cc3)C2)CN(c2cc(F)cc(F)c2)C(=O)O1 (stereo not shown) [Compound 54],Barnyardgrass plant response rating (0-100),[1]; 31 g ai/ha,30
same,Barnyardgrass plant response rating (0 to 100 scale),[1]; 125 g ai/ha,100
same,Blackgrass plant response rating (0-100),[2]; 31 g ai/ha,20
same,Blackgrass plant response rating (0 to 100 scale),[2]; 125 g ai/ha,60
same,Corn plant response rating (0-100),corn (Zea mays) [3]; 31 g ai/ha,0
same,Corn plant response rating (0 to 100 scale),corn (Zea mays) [3]; 125 g ai/ha,30
same,"Foxtail, Green plant response rating (0-100)",[4]; 31 g ai/ha,0
same,"Foxtail, Green plant response rating (0 to 100 scale)",[4]; 125 g ai/ha,30
same,Kochia plant response rating (0-100),kochia (Bassia scoparia) [5]; 31 g ai/ha,0
same,Kochia plant response rating (0 to 100 scale),kochia (Bassia scoparia) [5]; 125 g ai/ha,90
same,"Oat, Wild plant response rating (0-100)",[6]; 31 g ai/ha,0
same,"Oat, Wild plant response rating (0 to 100 scale)",[6]; 125 g ai/ha,90
same,"Amaranth, Palmer plant response rating (0-100)",[7]; 31 g ai/ha,10
same,"Amaranth, Palmer plant response rating (0 to 100 scale)",[7]; 125 g ai/ha,100
same,Ragweed plant response rating (0-100),[8]; 31 g ai/ha,0
same,Ragweed plant response rating (0 to 100 scale),[8]; 125 g ai/ha,0
same,"Ryegrass, Italian plant response rating (0-100)",[9]; 31 g ai/ha,50
same,"Ryegrass, Italian plant response rating (0 to 100 scale)",[9]; 125 g ai/ha,100
same,Soybean plant response rating (0-100),soybean (Glycine max) [10]; 31 g ai/ha,10
same,Soybean plant response rating (0 to 100 scale),soybean (Glycine max) [10]; 125 g ai/ha,70
same,Wheat plant response rating (0-100),[11]; 31 g ai/ha,80
same,Wheat plant response rating (0 to 100 scale),[11]; 125 g ai/ha,90
same,Barnyardgrass plant response rating (0-100),[12]; [28],70
same,Barnyardgrass plant response rating (0 to 100 scale),[12]; [29],100
same,Blackgrass plant response rating (0-100),[13]; [28],80
same,Blackgrass plant response rating (0 to 100 scale),[13]; [29],90
same,Corn plant response rating (0-100),corn (Zea mays) [14]; [28],90
same,Corn plant response rating (0 to 100 scale),corn (Zea mays) [14]; [29],100
same,Galium plant response rating (0-100),[15]; [28],80
same,Galium plant response rating (0 to 100 scale),[15]; [29],80
same,"Foxtail, Green plant response rating (0-100)",[16]; [28],40
same,"Foxtail, Green plant response rating (0 to 100 scale)",[16]; [29],60
same,Horseweed plant response rating (0-100),[17]; [28],20
same,Horseweed plant response rating (0 to 100 scale),[17]; [29],80
same,Kochia plant response rating (0-100),kochia (Bassia scoparia) [18]; [28],70
same,Kochia plant response rating (0 to 100 scale),kochia (Bassia scoparia) [18]; [29],90
same,"Oat, Wild plant response rating (0-100)",[19]; [28],90
same,"Oat, Wild plant response rating (0 to 100 scale)",[19]; [29],100
same,"Amaranth, Palmer plant response rating (0-100)",[20]; [28],90
same,"Amaranth, Palmer / Pigweed, Palmer plant response rating (0 to 100 scale)",[20]; [29],100
same,Ragweed plant response rating (0-100),[21]; [28],50
same,Ragweed plant response rating (0 to 100 scale),[21]; [29],60
same,"Ryegrass, Italian plant response rating (0-100)",[22]; [28],70
same,"Ryegrass, Italian plant response rating (0 to 100 scale)",[22]; [29],90
same,Soybean plant response rating (0-100),soybean (Glycine max) [23]; [28],60
same,Soybean plant response rating (0 to 100 scale),soybean (Glycine max) [23]; [29],60
same,Wheat plant response rating (0-100),[24]; [28],90
same,Wheat plant response rating (0 to 100 scale),[24]; [29],90
same,"Plant response rating, Barnyardgrass (0 to 100 scale, 0 is no effect and 100 is complete control)",[25],90
same,"Plant response rating, Ducksalad (0 to 100 scale, 0 is no effect and 100 is complete control)",[26],95
same,"Plant response rating, Rice (0 to 100 scale, 0 is no effect and 100 is complete control)",rice (Oryza sativa),15
same,"Plant response rating, Sedge, Umbrella (0 to 100 scale, 0 is no effect and 100 is complete control)",[27],95

# Reference: patent US20260285850A1, “SUBSTITUTED OXAZOLIDINONES AND IMIDAZOLINONES AS HERBICIDES” (FMC CORPORATION, priority 2023, published 2026)
